In PMC10671498, “Antiproliferative and Cytotoxic Properties of Propynoyl Betulin Derivatives against Human Ovarian Cancer Cells: In Vitro Studies” (International Journal of Molecular Sciences, 2023):
Like-named read-outs stand apart in the source and are kept apart here.

Legend:
[1] = tested on: SK-OV-3 cells; assay: SRB cell proliferation assay, SK-OV-3; format: cell-based, human; settings: for IC50: Homo sapiens
Experimental: This study used ovarian cancer cell lines, which are part of the panel of cell lines used as part of the NCI-60 Human Cell Lines Screen program, characterized by overexpression of the c-erbB2/neu (HER2) receptor [62, 63]. The human ovarian cancer cell lines (SK-OV-3 and OVCAR-3) were purchased from the American Type Culture Collection (ATCC®, Manassas, Virginia, USA). SK-OV-3 cells (ATCC No. HTB-77™) were cultured in McCoy’s 5A medium containing D-glucose (3 g/L), L-glutamine (0.219 g/L), and sodium bicarbonate (2.2 g/L) supplemented with 10% fetal bovine serum, 10 mM HEPES (pH 7.3–7.5), 100 U/mL penicillin, and 100 μg/mL streptomycin (all from Sigma Aldrich).
Betulin 1 and its derivatives were dissolved in dimethyl sulfoxide (DMSO; Sigma Aldrich) as a 15 mM stock solution. Working solutions were prepared through the dilution of stock solutions with culture medium. The final DMSO concentration in culture media was adjusted to 0.2%. The effect of tested compounds on the proliferation of SK-OV-3 and OVCAR-3 cells was measured using the In Vitro Toxicology Assay Kit, Sulforhodamine B based (Sigma Aldrich). Cells were seeded in 96-well plates (Greiner Bio-One, Kremsmünster, Austria) at an initial density of 3 × 10^3 cells per well in 200 µL of culture medium. After 24 h of incubation, betulin 1 and its derivatives at a concentration range of 0.1 μM to 30 μM were added to the wells. Control cultures were treated with vehicle alone (0.2% DMSO). The incubation periods for cells with test compounds were 1 day, 3 days, and 5 days. After appropriate incubation periods, culture media were removed, and cells were fixed in 10% trichloroacetic acid solution for 60 min at 4 °C. After fixation, the TCA solution was removed, and the plates were washed three times with deionized water (300 μL/well) and dried. At the next step, cells were stained with 0.4% sulforhodamine B for 30 min. The excess dye was removed by washing three times with 1% (vol/vol) acetic acid. The protein-bound dye was dissolved in 200 μL 10 mM Tris base solution. Absorbance was measured at 570 nm and 690 nm (reference wavelength) using the MRX Revelation plate reader (Dynex Technologies, Chantilly, VA, USA).
GraphPad Prism 10.0.2 (GraphPad Software Inc., San Diego, CA, USA) software was used for calculations and the statistical analysis of the IC50 values (Table 1). IC50 was determined by using the “nonlinear regression” mode, and the “log(inhibitor) vs. normalised response—Variable slope” equation was chosen in GraphPad Prism software for calculations. The obtained data were normalized to run from 100% down to 0%, and logarithms of concentration were used. Graphs (Figure 2, Figure 3, Figure 4, Figure 5 and Figure 8, and Supplementary Figure S1) were also prepared using this software. In the case of the lack of normal distribution or homogeneity of variances, the remaining results were analyzed using a non-parametric Kruskal–Wallis test with multiple comparisons. Post hoc analysis was performed with the non-parametric equivalent of Tukey’s test. A p value of <0.05 was considered statistically significant. Otherwise, a one-way ANOVA followed by a Tukey’s post hoc test was applied. t-tests was used to perform pairwise comparisons between group means. Analysis was performed using Statistica 13.1 software (StatSoft, Tulsa, OK, USA).

[2] = tested on: SNB-19 cell line; set-up: method as in PMID 33572631; settings: cited from earlier work
[3] = tested on: SK-OV-3 cells; assay: LDH release assay, SK-OV-3; format: cell-based, human; settings: SK-OV-3, 24 h, 10 μM and 30 μM
Experimental: In order to evaluate the cytotoxic effect, the release of LDH into the culture medium using the In Vitro Toxicology Assay Kit, Lactic Dehydrogenase Based (TOX7; Sigma Aldrich) was assessed. SK-OV-3 and OVCAR-3 cells were plated and cultured in 96-well plates (Greiner Bio-One) at the initial density of 5 × 10^3 cells per well in 100 µL of culture medium. The density of the cells was determined in the same manner as in the SRB assay. After 24 h, the media were replaced with the working solutions, which contained appropriate test compounds at concentrations of 3 μM, 10 μM, 30 μM, and control medium (0.2% DMSO). Cells were exposed to the test substances for 24 h. The background control comprised wells without cells with only control medium. To determine the maximal LDH release (high control), half of the control cultures were treated with lysis buffer. Wells with untreated cells were used as the low control of the assay. LDH activity in media was assessed according to the manufacturer’s protocol. The absorbance was measured at wavelengths of 490 nm and 690 nm (background), and the percentage of released enzyme was calculated for cells growing in the presence of compounds according to the formula:Cytotoxicity [%] = [(AT − AL)/(AH − AL)] × 100 where AT is the absorbance of treated wells; AL is low control; and AH is high control (maximal LDH release).
Cytotoxicity was expressed as a percentage of the released LDH calculated according to the difference between the absorbance of the treated and low control wells divided by the difference between the absorbance of the high control and low control wells.

[4] = tested on: SK-OV-3 cells; assay: TMRM analysis of mitochondrial membrane potential; format: cell-based, human; settings: SK-OV-3, 3 h, 30 µM
Experimental: Tetramethylrhodamine methyl ester (Sigma Aldrich) was used for the assessment of changes in the transmembrane potential of mitochondria. TMRM is a fluorescent cationic dye accumulating in mitochondria in a potential-dependent manner. Cell cultures were prepared as described above for acridine orange staining. Cells were exposed to test solutions for 3 h, and then TMRM was added (final concentration 100 nM) followed by incubation for 30 min in the CO2 incubator. Prior to observation, the plates were centrifuged (250× g, 5 min), and the medium was changed to PBS. The cells were analyzed under the Nikon Eclipse TS-100F microscope and photographed.

[5] = tested on: T47D cell line; set-up: method as in PMID 33572631; settings: cited from earlier work
[6] = tested on: C32 cell line; set-up: method as in PMID 33572631; settings: cited from earlier work
[7] = tested on: SK-OV-3 cells; assay: Cell morphology, acridine orange staining; format: cell-based, human; settings: SK-OV-3, 24 h, 30 µM
Experimental: Acridine orange staining was preceded by preparation of a cell culture at a density 1 × 10^5 per well in a 24-well glass bottom plate (NEST Biotechnology, Wuxi, China). Cells were cultured for 24 h in a standard medium (1 mL), after which the medium was replaced with a new medium containing 10 µM and 30 µM of the test compounds or with 0.2% DMSO (control). Cells were incubated in the presence of test substances for 24 h in a CO2 incubator. To each of the test wells, acridine orange dissolved in PBS (the final concentration was 1 µg/mL) was added and incubated for 5 min in a CO2 incubator. After incubation, the cells were observed under a Nikon Eclipse TS-100F microscope (Nikon Instruments Europe, Amstelveen, The Netherlands). The photographs were taken with a Nikon DS-Fi1 digital camera, supported by the NIS-Elements application.

SMILES | IC50 ([1]; SK-OV-3, 72 h) | IC50 ([1]; SK-OV-3, 120 h) | concentration at which antiproliferative activity (decrease in the number of cells) was evident ([1]; SK-OV-3, SRB assay, 0.1–30 µM) | IC50 [2] | cytotoxicity (released LDH) [3] | mitochondrial membrane potential (TMRM fluorescence) [4] | IC50 [5] | IC50 [6] | IC50 ([1]; 72 h, SK-OV-3, 3 days treatment, SRB assay, read-out: IC50) | IC50 ([1]; 120 h, SK-OV-3, 5 days treatment, SRB assay, read-out: IC50) | cell morphology (acridine orange) [7]
C#CC(=O)OC[C@]12CC[C@@H](/C(C)=C/P(=O)(OCC)OCC)C1C1CCC3[C@@]4(C)CC[C@H](O)C(C)(C)C4CC[C@@]3(C)[C@]1(C)CC2 (some centres unmarked) [Compound 6, E-29-diethoxyphosphoryl-28-O-propynoylbetulin] | 290 nM | 260 nM | 1 µM | 430 nM | most cytotoxic agent | reduced the mitochondrial membrane potential | 700 nM | 600 nM |  |  | 
C=C(C)[C@@H]1CC[C@]2(CO)CC[C@]3(C)[C@H](CC[C@@H]4[C@@]5(C)CC[C@H](O)C(C)(C)[C@@H]5CC[C@]43C)[C@@H]12 [Compound 1, lup-20(29)-ene-3β,28-diol, reference compound] |  |  |  |  |  |  |  |  | 8210 nM | 4590 nM | typical apoptotic morphology
